Source: ChEMBL document CHEMBL4004785, “Spiro Meroterpenoids from Ganoderma applanatum” (J Nat Prod, 2017)

Target: T1, Tyrosine-protein kinase JAK3 (Homo sapiens, UniProt P52333)
T1 sequence (P52333 whole entry): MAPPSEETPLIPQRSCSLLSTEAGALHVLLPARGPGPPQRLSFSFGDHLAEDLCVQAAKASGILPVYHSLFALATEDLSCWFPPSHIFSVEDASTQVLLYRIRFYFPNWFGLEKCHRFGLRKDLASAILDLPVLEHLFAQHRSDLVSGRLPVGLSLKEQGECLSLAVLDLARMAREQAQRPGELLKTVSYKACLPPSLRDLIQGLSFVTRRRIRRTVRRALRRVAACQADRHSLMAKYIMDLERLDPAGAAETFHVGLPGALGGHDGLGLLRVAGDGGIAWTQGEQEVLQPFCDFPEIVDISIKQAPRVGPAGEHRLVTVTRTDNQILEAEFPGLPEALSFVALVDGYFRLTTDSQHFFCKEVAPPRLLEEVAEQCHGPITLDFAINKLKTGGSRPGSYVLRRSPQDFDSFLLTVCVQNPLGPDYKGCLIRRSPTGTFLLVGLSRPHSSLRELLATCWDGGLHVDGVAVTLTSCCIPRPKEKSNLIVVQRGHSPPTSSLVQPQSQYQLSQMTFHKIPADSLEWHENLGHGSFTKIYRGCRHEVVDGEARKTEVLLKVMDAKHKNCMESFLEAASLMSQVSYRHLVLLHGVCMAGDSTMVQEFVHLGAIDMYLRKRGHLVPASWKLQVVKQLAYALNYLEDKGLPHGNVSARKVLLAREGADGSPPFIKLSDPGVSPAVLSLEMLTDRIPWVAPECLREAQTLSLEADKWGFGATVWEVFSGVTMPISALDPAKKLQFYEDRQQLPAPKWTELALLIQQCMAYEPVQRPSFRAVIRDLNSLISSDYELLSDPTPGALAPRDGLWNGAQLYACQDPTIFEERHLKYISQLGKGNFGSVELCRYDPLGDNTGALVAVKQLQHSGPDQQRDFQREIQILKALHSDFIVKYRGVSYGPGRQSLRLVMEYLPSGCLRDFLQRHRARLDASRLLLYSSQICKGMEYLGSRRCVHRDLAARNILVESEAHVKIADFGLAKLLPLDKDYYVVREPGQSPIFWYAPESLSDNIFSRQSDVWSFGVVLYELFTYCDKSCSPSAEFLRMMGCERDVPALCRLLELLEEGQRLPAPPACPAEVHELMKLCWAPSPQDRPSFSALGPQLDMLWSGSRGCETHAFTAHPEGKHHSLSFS
Assay: Inhibition of human recombinant GST-tagged JAK3 cytoplasmic domain (781 to 1124 residues) expressed in baculovirus expression system incubated for 1 hr by FRET-based Z'-Lyte assay

SMILES	IC50 [µM]
O=CC1=CCC[C@@H](C(=O)O)[C@@]2(C1)Oc1ccc(O)cc1C2=O	34.8
O=CC1=CCC[C@@H](C(=O)O)[C@]2(C1)Oc1ccc(O)cc1C2=O	7
